Several values for one entry are separate records, joined by “and”; a condition that tells them apart may be missing. Equal values may be shown once. Inconclusive results and toxic doses are left out.
Test system: P388 leukemia ip, CD2F1 mice, survival T/C
Experiment: NCI In Vivo Anticancer Drug Screen. Data for tumor model P388 Leukemia (intraperitoneal) in CD2F1 (CDF1) mice
Settings: endpoint: median survival time, higher = longer survival
How it was run: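 Mice carrying the transplanted tumor received test compound or vehicle. Survival was recorded in each group, and the value is the treated-group measurement divided by that of the vehicle-treated control group.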

[1] = dose: 6.25 mg/kg/injection, schedule: Q01DX005 (ip), vehicle: saline with Tween-80
[2] = dose: 12.5 mg/kg/injection, schedule: Q01DX005 (ip), vehicle: saline with Tween-80
[3] = dose: 25.0 mg/kg/injection, schedule: Q01DX005 (ip), vehicle: saline with Tween-80
[4] = dose: 50.0 mg/kg/injection, schedule: Q01DX009 (ip), vehicle: saline with Tween-80
[5] = dose: 100.0 mg/kg/injection, schedule: Q01DX009 (ip), vehicle: saline with Tween-80
[6] = dose: 200.0 mg/kg/injection, schedule: Q01DX009 (ip), vehicle: saline with Tween-80
[7] = dose: 100.0 mg/kg/injection, schedule: Q04DX003 (ip), vehicle: saline with Tween-80
[8] = dose: 200.0 mg/kg/injection, schedule: Q04DX003 (ip), vehicle: saline with Tween-80
[9] = dose: 400.0 mg/kg/injection, schedule: Q04DX003 (ip), vehicle: saline with Tween-80
[10] = dose: 50.0 mg/kg/injection, schedule: Q01DX009 (ip), vehicle: Klucel (hydroxypropylcellulose) (HPC)
[11] = dose: 100.0 mg/kg/injection, schedule: Q01DX009 (ip), vehicle: Klucel (hydroxypropylcellulose) (HPC)
[12] = dose: 200.0 mg/kg/injection, schedule: Q01DX009 (ip), vehicle: Klucel (hydroxypropylcellulose) (HPC)
[13] = dose: 60.0 mg/kg/injection, schedule: Q01DX005 (ip), vehicle: saline with Tween-80
[14] = dose: 120.0 mg/kg/injection, schedule: Q01DX005 (ip), vehicle: saline with Tween-80
[15] = dose: 240.0 mg/kg/injection, schedule: Q01DX005 (ip), vehicle: saline with Tween-80

With Cc1nc(C(=O)OCc2ccccc2)cc(OCc2ccccc2)c1C the T/C (dose: 12.5 mg/kg/injection, schedule: Q01DX009 (ip), vehicle: distilled water + Tween-80) was 101 % of control, the T/C (dose: 25.0 mg/kg/injection, schedule: Q01DX009 (ip), vehicle: distilled water + Tween-80) was 90 % of control and the T/C (dose: 50.0 mg/kg/injection, schedule: Q01DX009 (ip), vehicle: distilled water + Tween-80) was 95 % of control. The T/C (dose: 100.0 mg/kg/injection, schedule: Q01DX009 (ip), vehicle: distilled water + Tween-80) was 90 % of control and the T/C (dose: 200.0 mg/kg/injection, schedule: Q01DX009 (ip), vehicle: distilled water + Tween-80) was 93 % of control.

In the case of CCN(CC)CCNC(=O)c1noc2cc([N+](=O)[O-])ccc12, the T/C (dose: 12.5 mg/kg/injection, schedule: Q01DX005 (ip), vehicle: saline) is reported as 109 % of control, the T/C (dose: 25.0 mg/kg/injection, schedule: Q01DX005 (ip), vehicle: saline) is reported as 115 % of control and the T/C (dose: 50.0 mg/kg/injection, schedule: Q01DX005 (ip), vehicle: saline) is reported as 103 % of control and 97 % of control.

COc1c(-c2ccc3c(c2)OCO3)oc2cc(O)cc(O)c2c1=O was tested, and the T/C [1] was 100 % of control, the T/C [2] was 100 % of control and the T/C [3] was 104 % of control. For the same compound, the T/C (dose: 100.0 mg/kg/injection, schedule: Q01DX005 (ip), vehicle: saline with Tween-80) was 89 % of control and the T/C (dose: 200.0 mg/kg/injection, schedule: Q01DX005 (ip), vehicle: saline with Tween-80) was 105 % of control.

In the case of C=C(C1=CC(=O)C(C)=C(OC)C1=O)C(CC=C(C)C)OC(=O)/C(C)=C/C (stereo not given), the T/C (dose: 1.56 mg/kg/injection, schedule: Q01DX005 (ip), vehicle: Klucel (hydroxypropylcellulose) (HPC)) is reported as 92 % of control, the T/C (dose: 3.12 mg/kg/injection, schedule: Q01DX005 (ip), vehicle: Klucel (hydroxypropylcellulose) (HPC)) is reported as 99 % of control and the T/C (dose: 6.25 mg/kg/injection, schedule: Q01DX005 (ip), vehicle: Klucel (hydroxypropylcellulose) (HPC)) is reported as 101 % of control. The T/C (dose: 12.5 mg/kg/injection, schedule: Q01DX005 (ip), vehicle: Klucel (hydroxypropylcellulose) (HPC)) was 96 % of control and the T/C (dose: 25.0 mg/kg/injection, schedule: Q01DX005 (ip), vehicle: Klucel (hydroxypropylcellulose) (HPC)) was 102 % of control.

With CNC(=S)N/N=C(\c1ccccc1)c1ccccn1 the T/C (dose: 50.0 mg/kg/injection, schedule: Q01DX009 (ip), vehicle: saline) was 100 % of control, the T/C (dose: 50.0 mg/kg/injection, schedule: Q01DX009 (ip), vehicle: suspension in saline) was 100 % of control and 105 % of control and the T/C (dose: 100.0 mg/kg/injection, schedule: Q01DX009 (ip), vehicle: saline) was 102 % of control. The T/C (dose: 100.0 mg/kg/injection, schedule: Q01DX009 (ip), vehicle: suspension in saline) was 103 % of control and 90 % of control, the T/C (dose: 200.0 mg/kg/injection, schedule: Q01DX009 (ip), vehicle: saline) was 100 % of control and the T/C (dose: 200.0 mg/kg/injection, schedule: Q01DX009 (ip), vehicle: suspension in saline) was 96 % of control and 98 % of control. The T/C (dose: 400.0 mg/kg/injection, schedule: Q01DX009 (ip), vehicle: saline) was 122 % of control and the T/C (dose: 400.0 mg/kg/injection, schedule: Q01DX009 (ip), vehicle: suspension in saline) was 102 % of control and 97 % of control.

For CSc1ccc(N2C(N)=NC(N)=NC2(C)C)cc1, the T/C [1] was 100 % of control, the T/C [2] was 102 % of control and the T/C [3] was 100 % of control.

In the case of COc1ccc(/C=C/c2c(C(=O)O)oc3ccccc23)cc1, the T/C [4] is reported as 103 % of control, the T/C [5] is reported as 95 % of control and the T/C [6] is reported as 112 % of control.

With Cc1cc(Cl)c2ccccc2c1N the T/C [7] was 100 % of control, the T/C (dose: 200.0 mg/kg/injection, schedule: Q01DX009 (ip), vehicle: other) was 105 % of control and the T/C [8] was 95 % of control. The T/C (dose: 400.0 mg/kg/injection, schedule: Q01DX009 (ip), vehicle: other) was 90 % of control and the T/C [9] was 100 % of control.

With COC(=O)c1ccc(O)cc1C1(Cl)CC1 the T/C (dose: 60.0 mg/kg/injection, schedule: Q01DX005 (ip), vehicle: Klucel (hydroxypropylcellulose) (HPC)) was 108 % of control, the T/C (dose: 120.0 mg/kg/injection, schedule: Q01DX005 (ip), vehicle: Klucel (hydroxypropylcellulose) (HPC)) was 102 % of control and the T/C (dose: 240.0 mg/kg/injection, schedule: Q01DX005 (ip), vehicle: Klucel (hydroxypropylcellulose) (HPC)) was 100 % of control.

With O=[N+]([O-])CC(OCCCCO)C(Cl)(Cl)Cl (stereo not given) the T/C [4] was 101 % of control, the T/C [5] was 96 % of control and the T/C [6] was 87 % of control.

With CCN(CC)CCNc1ccc(C)c2sc3c(N)cccc3c(=O)c12 the T/C [4] was 100 % of control, the T/C [5] was 113 % of control and the T/C [6] was 123 % of control.

CC1(C)OC2CC(=O)OCC23C1=C(O)C(=O)C1(C)C3CCC2(C)C(c3ccoc3)OC(=O)C3OC321 (stereo not given) was tested, and the T/C (dose: 0.5 mg/kg/injection, schedule: Q01DX009 (ip), vehicle: saline + alcohol) was 101 % of control, the T/C (dose: 1.0 mg/kg/injection, schedule: Q01DX009 (ip), vehicle: saline + alcohol) was 104 % of control and the T/C (dose: 2.0 mg/kg/injection, schedule: Q01DX009 (ip), vehicle: saline + alcohol) was 106 % of control. The T/C (dose: 4.0 mg/kg/injection, schedule: Q01DX009 (ip), vehicle: saline + alcohol) was 106 % of control and the T/C (dose: 8.0 mg/kg/injection, schedule: Q01DX009 (ip), vehicle: saline + alcohol) was 101 % of control.

CCOP(=O)(Nc1ccc2c(c1)Cc1c-2cc(Cl)c(NC(C)=O)c1Cl)OCC was tested, and the T/C (dose: 50.0 mg/kg/injection, schedule: Q01DX005 (ip), vehicle: Klucel (hydroxypropylcellulose) (HPC)) was 95 % of control, the T/C (dose: 100.0 mg/kg/injection, schedule: Q01DX005 (ip), vehicle: Klucel (hydroxypropylcellulose) (HPC)) was 97 % of control and the T/C (dose: 200.0 mg/kg/injection, schedule: Q01DX005 (ip), vehicle: Klucel (hydroxypropylcellulose) (HPC)) was 97 % of control.

For CC1=NN(C(=O)c2ccncc2)C(=O)C1N=Nc1ccc([N+](=O)[O-])cc1Cl (stereo not given), the T/C [4] was 99 % of control, the T/C [5] was 96 % of control and the T/C [6] was 104 % of control.

With C[n+]1noc([O-])c1-c1ccccc1 the T/C [4] was 102 % of control and the T/C [5] was 104 % of control.

With CCn1c(=O)c2[nH]c(Br)nc2n(CCOC)c1=O the T/C [10] was 90 % of control, the T/C [11] was 93 % of control and the T/C [12] was 104 % of control.

In the case of CCCCCCC(O)CCC(O)CCCCCCCC(=O)O (stereo not given), the T/C [4] is reported as 103 % of control, the T/C [5] is reported as 92 % of control and the T/C [6] is reported as 100 % of control.

In the case of CC=C(/C(=C/C)c1ccc(O)cc1)c1ccc(O)cc1, the T/C (dose: 66.0 mg/kg/injection, schedule: Q01DX009 (ip), vehicle: saline with Tween-80) is reported as 120 % of control, the T/C [7] is reported as 100 % of control and the T/C [8] is reported as 100 % of control. The T/C [9] was 90 % of control.

COC1=CC2OC3OC(=O)CC3C2C(OCc2ccccc2)=C1 (stereo not given) was tested, and the T/C [13] was 91 % of control, the T/C [14] was 88 % of control and the T/C [15] was 90 % of control.

With Cc1cc(=O)n2c(nc3cc(Cl)ccc32)s1 the T/C [10] was 103 % of control, the T/C [11] was 95 % of control and the T/C [12] was 89 % of control.

For CCSc1nc(C)cc(Cl)n1, the T/C (dose: 50.0 mg/kg/injection, schedule: Q04DX003 (ip), vehicle: saline with Tween-80) was 100 % of control, the T/C [7] was 100 % of control and the T/C [8] was 113 % of control.

In the case of O=C[C@@H](CO)O[C@H](C=O)n1cnc2c(=O)[nH]cnc21, the T/C (dose: 80.0 mg/kg/injection, schedule: Q01DX009 (ip), vehicle: saline) is reported as 166 % of control and 169 % of control, the T/C (dose: 150.0 mg/kg/injection, schedule: Q01DX005 (ip), vehicle: saline) is reported as 171 % of control and the T/C (dose: 160.0 mg/kg/injection, schedule: Q01DX009 (ip), vehicle: saline) is reported as 187 % of control and 189 % of control and 209 % of control. For the same compound, the T/C (dose: 250.0 mg/kg/injection, schedule: Q01DX005 (ip), vehicle: saline) was 56 % of control and the T/C (dose: 320.0 mg/kg/injection, schedule: Q01DX009 (ip), vehicle: saline) was 100 % of control and 104 % of control.

For O=[N+]([O-])c1ccc(-c2sc(-c3ccccc3)nc2O)cc1, the T/C (dose: 12.5 mg/kg/injection, schedule: Q01DX009 (ip), vehicle: saline with Tween-80) was 100 % of control, the T/C (dose: 25.0 mg/kg/injection, schedule: Q01DX009 (ip), vehicle: saline with Tween-80) was 98 % of control and the T/C [4] was 91 % of control and 94 % of control. The T/C [6] was 88 % of control.

Cc1c([N+](=O)[O-])oc2ccc3ccccc3c12 was tested, and the T/C [13] was 113 % of control, the T/C [14] was 94 % of control and the T/C [15] was 107 % of control.
